{
  "source": "paper PMC4601023",
  "about": "“Novel anticancer agent, SQAP, binds to focal adhesion kinase and modulates its activity” (Scientific Reports, 2015)",
  "key": {"breast CSCs": {"test_system": "breast CSCs", "parameters": "method as in PMID 25187396", "details": "in combination with radiotherapy; cited from earlier work"}, "[1]": {"test_system": "TSP-1 expression in endothelial cells", "parameters": "method as in PMID 14739779", "details": "cited from earlier work"}, "HR23B": {"biological_target": "T1, HR23B (Homo sapiens, UniProt P54727)", "T1 construct": "ADRM1 and HR23B human full length proteins were purchased; purchased Abnova (Taipei, Taiwan)", "T1 sequence (P54727 whole entry)": "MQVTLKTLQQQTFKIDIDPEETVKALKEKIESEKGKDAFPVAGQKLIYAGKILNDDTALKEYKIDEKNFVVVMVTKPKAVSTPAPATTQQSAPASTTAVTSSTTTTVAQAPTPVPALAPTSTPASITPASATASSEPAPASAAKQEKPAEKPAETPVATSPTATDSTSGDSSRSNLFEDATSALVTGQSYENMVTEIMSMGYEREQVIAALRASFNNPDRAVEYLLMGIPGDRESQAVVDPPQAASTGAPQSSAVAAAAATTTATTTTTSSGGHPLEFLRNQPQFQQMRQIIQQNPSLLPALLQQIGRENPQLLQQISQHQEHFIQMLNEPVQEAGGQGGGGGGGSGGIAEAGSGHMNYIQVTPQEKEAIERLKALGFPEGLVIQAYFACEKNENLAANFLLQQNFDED", "assay": "SPR analysis, immobilized GST-HR23B (GST control subtracted)", "format": "binding", "details": "no kinetic analysis", "excerpt": "(§1) SPR was utilized as an independent confirmation of the kinetic parameters between SQAP and the putative binding proteins. […] The recombinant proteins were then expressed in Escherichia coli and purified to homogeneity. In addition, full length, His-tagged ADRM1 and GST-tagged HR23B (GST-HR23B) were also used. The proteins were first immobilized on a CM5 sensor chip of the SPR biosensor (Biacore 3000). For GST-HR23B analysis, a GST protein was additionally immobilized and used as a control in order to eliminate possible nonspecific binding of SQAP. SQAP samples at different concentrations were then injected over the proteins immobilized on the sensor chip. As a negative control we used sulfoquynovosylpropanediol (SQP), which lacks the fatty acid moiety of SQAP (Fig. 1). […]\n(§2) The binding kinetics of SCP-2, MFE-2, ADRM1, HR23B and FAK with SQAP and SQP were analyzed on a Biacore 3000 instrument (GE Healthcare, Little Chalfont, UK). […] The buffer of purified peptides was exchanged to HBS-P (150 mM NaCl, 0.005% Surfactant P20, 10 mM HEPES-NaOH pH 7.4) using a PD 10 column (GE Healthcare, Little Chalfont, UK) and the concentrations were quantified using DC protein assay kit (Bio-Rad Laboratories, Hercules, CA, USA). […] Kinetic parameters were determined by analyzing the data using BIAevaluation 4.1 software (GE Healthcare, Little Chalfont, UK)."}, "ADRM1": {"biological_target": "T2, ADRM1 (Homo sapiens, UniProt Q16186)", "T2 construct": "ADRM1 and HR23B human full length proteins were purchased; His-tag; purchased ATgen (Gyeonggi-do, Korea)", "T2 sequence (Q16186 whole entry)": "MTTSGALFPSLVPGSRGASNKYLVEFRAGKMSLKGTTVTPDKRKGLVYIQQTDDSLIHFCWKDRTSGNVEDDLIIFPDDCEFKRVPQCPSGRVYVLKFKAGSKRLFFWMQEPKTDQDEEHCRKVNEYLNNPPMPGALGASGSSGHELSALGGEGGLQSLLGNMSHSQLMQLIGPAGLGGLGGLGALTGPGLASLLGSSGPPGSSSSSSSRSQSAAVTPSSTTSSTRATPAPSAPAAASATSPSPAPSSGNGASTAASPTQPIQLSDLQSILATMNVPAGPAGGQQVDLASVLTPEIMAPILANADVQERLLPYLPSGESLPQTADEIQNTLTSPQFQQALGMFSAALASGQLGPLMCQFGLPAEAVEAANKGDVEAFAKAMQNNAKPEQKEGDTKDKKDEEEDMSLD", "assay": "SPR analysis, immobilized full length His-ADRM1", "format": "binding", "excerpt": "as §1, §2"}, "SCP-2 (400–547)": {"biological_target": "T3, SCP-2 (400–547) (Homo sapiens, UniProt P22307)", "T3 construct": "DNA encoding SCP-2 (400–547) was amplified; made in house; host or cells: E. coli Rosetta 2 (DE3) pLysS", "T3 sequence (P22307 400-547)": "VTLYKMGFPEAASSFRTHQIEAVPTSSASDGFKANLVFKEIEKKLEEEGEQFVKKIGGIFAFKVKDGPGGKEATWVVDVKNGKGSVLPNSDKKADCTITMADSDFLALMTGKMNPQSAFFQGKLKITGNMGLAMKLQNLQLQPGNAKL", "assay": "SPR analysis, immobilized His-tagged SCP-2 (400-547)", "format": "binding", "excerpt": "as §1, §2"}, "MFE-2 (598–736)": {"biological_target": "T4, MFE-2 (598–736) (Homo sapiens, UniProt P51659)", "T4 construct": "For MFE-2 (598–736) DNA was amplified; made in house; host or cells: E. coli Rosetta 2 (DE3) pLysS", "T4 sequence (P51659 598-736)": "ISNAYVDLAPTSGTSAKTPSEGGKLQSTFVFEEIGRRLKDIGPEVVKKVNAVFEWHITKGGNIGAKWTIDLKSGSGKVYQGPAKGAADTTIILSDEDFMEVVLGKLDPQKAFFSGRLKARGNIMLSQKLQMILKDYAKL", "assay": "SPR analysis, immobilized His-tagged MFE-2 (598-736)", "format": "binding", "excerpt": "as §1, §2"}, "[2]": {"test_system": "FAK phosphorylation (Y397, Y925) in A549 cells", "assay": "FAK phosphorylation level in A549, Western blotting", "format": "cell-based, human", "details": "A549, fibronectin 10 μg/mL, 1 h treatment", "procedure": "A549 cells were incubated in a serum-free medium for 48 h in 60 mm dishes (IWAKI, Tokyo, Japan). Then 10 μM SQAP, SQMG or SQP was added and incubated for 30 min followed by addition of fibronectin 10 μg/mL (Sigma, St. Louis, MI, USA) and incubation for another 30 min. FAK phosphorylation level was analyzed by Western blotting as described in the next section.\n(§3) Cells were harvested and solubilized in RIPA buffer (20 mM Tris-HCl, pH 7.5, 1% Sodium deoxycholate, 150 mM NaCl, 5 mM EDTA, 1% Triton X-100, 0.1% SDS, 0.1%, 1 mM PMSF, 1 mM vanadate and 1 μg/mL leupeptin). Protein quantification was determined using the DC protein assay kit (Bio-Rad, Hercules, CA, USA). A total of 15 μg of each protein sample were separated by SDS–PAGE gels and blotted onto polyvinylidene difluoride membranes (Merck, Kenilworth, NJ, US). After blocking for 1 h with Blocking-One (Nacalai Tesque, Kyoto, Japan), proteins were detected by incubating the membranes with the primary antibody at 4 °C overnight (anti-Y397 2:2000, anti-Y925 5:2000 and anti-FAK 0.5:2000) followed by incubation with horseradish peroxidase-conjugated secondary antibodies at room temperature for 1 h (anti-mouse 0.5:2000 and anti-rabbit 0.4:2000)."}, "FAK (910–1052)": {"biological_target": "T5, FAK (910–1052) (Homo sapiens, UniProt Q05397)", "T5 construct": "For FAK (910–1052) DNA was amplified; made in house; host or cells: E. coli BL21 (DE3)", "T5 sequence (Q05397 910-1052)": "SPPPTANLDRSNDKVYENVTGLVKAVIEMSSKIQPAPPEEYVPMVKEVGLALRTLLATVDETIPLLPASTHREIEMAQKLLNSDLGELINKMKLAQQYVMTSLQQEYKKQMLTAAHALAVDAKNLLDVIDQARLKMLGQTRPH", "assay": "SPR analysis, immobilized His-tagged FAK (910-1052)", "format": "binding", "excerpt": "as §1, §2"}, "VEGF": {"biological_target": "VEGF (Homo sapiens, UniProt P15692)", "sequence (P15692 whole entry, species assumed)": "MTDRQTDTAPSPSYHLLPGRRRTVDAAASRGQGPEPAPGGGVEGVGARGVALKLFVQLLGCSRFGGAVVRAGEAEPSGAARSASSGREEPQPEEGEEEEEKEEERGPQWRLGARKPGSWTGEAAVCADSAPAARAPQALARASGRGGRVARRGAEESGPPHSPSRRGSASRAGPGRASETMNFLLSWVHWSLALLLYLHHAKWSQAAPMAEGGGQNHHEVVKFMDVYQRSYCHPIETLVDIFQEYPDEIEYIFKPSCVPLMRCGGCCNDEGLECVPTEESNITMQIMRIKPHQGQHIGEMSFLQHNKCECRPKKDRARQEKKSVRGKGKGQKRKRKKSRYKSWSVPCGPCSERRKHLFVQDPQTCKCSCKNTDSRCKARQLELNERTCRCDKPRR", "details": "cited from earlier work"}, "[3]": {"test_system": "FAK phosphorylation (Y397, Y925) in HUVEC cells", "assay": "FAK phosphorylation level in HUVEC, Western blotting", "format": "cell-based, human", "details": "VEGF 50 ng/mL, 1 h", "procedure": "HUVEC cells were incubated for 20 h in serum-free medium in 60 mm dishes. SQAP, SQMG or SQP was added and incubated for 30 min followed by addition of 50 ng/mL VEGF (RD systems, Minneapolis, MN. USA) and incubation for another 30 min. FAK phosphorylation level was analyzed by Western blotting as described in the next section.\nas §3"}, "[4]": {"test_system": "Akt phosphorylation at S473 in HUVEC", "assay": "Akt phosphorylation in HUVEC, Western blotting", "format": "cell-based, human", "details": "treated for 21 h, 10 µM", "excerpt": "Furthermore, we looked at FAK signaling pathway to validate our results. Paxillin binds to FAK 919–938 residues which is a sequence contained within the region where SQAP is predicted to bind. Binding between paxillin and FAK results in paxillin phosphorylation at Y118[35][36]. Thus, we examined paxillin phosphorylation. […] Additionally, we studied Akt phosphorylation at S473 on account of FAK is a known factor in control of Akt activity. We observed that Akt phosphorylation was diminished when treated with SQAP or SQMG for 21 h (see Supplementary Fig. S3).\nas §3, with “0.4:2000). […]” for “0.4:2000).”"}, "[5]": {"test_system": "lung and colon adenocarcinomas", "parameters": "method as in PMID 9020475, PMID 21115885", "details": "transplanted in nude mice, in combination with X-irradiation; cited from earlier work"}, "TSP-1 gene": {"test_system": "TSP-1 gene", "parameters": "method as in PMID 22587436", "details": "diverse cell lines including A549 and HUVEC; cited from earlier work"}, "Tie2 gene": {"test_system": "Tie2 gene", "parameters": "method as in PMID 18380795", "details": "cited from earlier work"}},
  "data": [
    {"compound": "CS(=O)(=O)c1cccc(CNc2nc(Nc3ccc4c(c3)CCC(=O)N4)ncc2C(F)(F)F)c1", "note": "[PF573228]", "values": [
      {"measurement": "formation of clumps of breast CSCs", "setting": "breast CSCs", "value": "block the formation of clumps"}
    ]},
    {"compound": "O=c1cc(N2CCOCC2)oc2c(-c3ccccc3)cccc12", "note": "[LY 294002]", "values": [
      {"measurement": "TSP-1 expression levels", "setting": "[1]", "value": "upregulated"}
    ]},
    {"compound": "O=S(=O)(O)C[C@H]1O[C@H](OCCCO)[C@H](O)[C@@H](O)[C@@H]1O", "note": "[SQP, sulfoquynovosylpropanediol, reference compound]", "values": [
      {"measurement": "binding to HR23B (SPR response)", "setting": "HR23B", "value": "neither bound"},
      {"measurement": "binding to ADRM1 (SPR response)", "setting": "ADRM1", "value": "neither bound"},
      {"measurement": "binding to SCP-2 (SPR response)", "setting": "SCP-2 (400–547)", "value": "neither bound"},
      {"measurement": "binding to MFE-2 (SPR response)", "setting": "MFE-2 (598–736)", "value": "neither bound"},
      {"measurement": "phosphorylation of FAK at Y397 and Y925", "setting": "[2]", "value": "failed to inhibit"},
      {"measurement": "binding to FAK (SPR response)", "setting": "FAK (910–1052)", "value": "neither bound"}
    ]},
    {"compound": "sulfoquinovosyl monoacylglyceride [SQMG]", "values": [
      {"measurement": "binding to VEGF", "setting": "VEGF", "value": "bind to VEGF"},
      {"measurement": "phosphorylation level of FAK at Y397 and at Y925 after VEGF stimulation", "setting": "[3]", "value": "can inhibit"},
      {"measurement": "Akt phosphorylation at S473", "setting": "[4]", "value": "diminished"},
      {"measurement": "tumor growth", "setting": "[5]", "value": "significantly inhibited"},
      {"measurement": "TSP-1 gene expression", "setting": "TSP-1 gene", "value": "upregulation"},
      {"measurement": "Tie2 gene expression", "setting": "Tie2 gene", "value": "downregulation"}
    ]}
  ]
}
